Marks after values point to notes of the source that are not given here.
Key:
Histamine = experiment: Scalp tape strip histamine (HPLC/MS/MS); assay type: in vivo, human
Description: Subjects are enrolled in a double-blind, randomized study for all test groups and have Baseline and Week 3 measurements of scalp health taken for flaking, itch and scalp health endpoints. Subjects take home a test product(s) and are instructed on use of test products throughout the study. Test products are solubilized in a hydroalcoholic leave-on formulation. Azoxystrobin raw material is sourced from AK Scientific Inc. (Union City, Calif.) as >97% pure. Azoxystrobin scalp treatment is prepared from a slurry of azoxystrobin in ethanol that is formulated to 0.1% (w/v) in a base chassis of 50% ethanol, 0.35% Ultrez 21 (rheology modifier), 0.05% neutrol TE and water (q.s.). […]
Biomarkers of scalp health, including biomarkers of inflammation, itch, oxidative stress and barrier integrity are assessed by non-invasive tape strip sampling of the scalp surface to determine therapeutic resolution. All biomarkers are analyzed from D-Squame® scalp tape samples that are collected from the scalp of subjects before and after scalp treatment with either azoxystrobin or vehicle (Baseline, and Week 3 respectively). These are extracted and analyzed according to published methods (International Journal of Dermatology 2011, 50, 102-113, incorporated by reference herein). […]
Histamine is analyzed by gradient reversed-phase HPLC/MS/MS to evaluate scalp itch. […]

human scalp (dandruff) = experiment: Self-assessment questionnaire for itch perception; assay type: in vivo
Description: Subjects are enrolled in a double-blind, randomized study for all test groups and have Baseline and Week 3 measurements of scalp health taken for flaking, itch and scalp health endpoints. Subjects take home a test product(s) and are instructed on use of test products throughout the study. Test products are solubilized in a hydroalcoholic leave-on formulation. Azoxystrobin raw material is sourced from AK Scientific Inc. (Union City, Calif.) as >97% pure. Azoxystrobin scalp treatment is prepared from a slurry of azoxystrobin in ethanol that is formulated to 0.1% (w/v) in a base chassis of 50% ethanol, 0.35% Ultrez 21 (rheology modifier), 0.05% neutrol TE and water (q.s.). Vehicle scalp treatment is prepared similarly without the addition of azoxystrobin raw material. Subjects apply either azoxystrobin or vehicle scalp treatments daily for 3 weeks. Self-assessment questionnaires for itch perception are administered to each subject at Baseline and Week 3. Itch perception is quantified by each subject as severity of symptoms over the past 24 hours on a 7 point scale: 0=none, 1=slight, 2=slight to moderate, 3=moderate, 4=moderate to severe; 5=severe; 6=very severe.

## CO/C=C(/C(=O)OC)c1ccccc1Oc1cc(Oc2ccccc2C#N)ncn1 [Azoxystrobin]
Histamine; 0.1% leave-on daily, Week 3, scalp tape strips
  Histamine Results % Change from Baseline: 23.8%
Histamine; 3 weeks of treatment
  histamine reduction compared to placebo control or baseline values (in words): does not significantly reduce histamine
Human scalp (dandruff); 7 point scale 0-6, Common Baseline Severity = 3.1, 0.1% leave-on daily
  Mean Itch Severity at Week 3: 1.5*
Human scalp (dandruff); compared to a placebo control
  reduction in itch perception: 48%

From patent US20220192955A1, “AZOXYSTROBIN EFFICACY IN SCALP HEALTH” (The Procter & Gamble Company, priority 2020, published 2022)
